Structures can show the parent of a compound that is named as a salt.

This data set can be described thus: in vitro. As to conditions: rat, gh3-tre-luc cells.

The term CC50 denotes the concentration giving 50% cytotoxicity. High values mean better tolerance by the cells, low ones harm at low concentration. `CC(C)(C)NCC(O)COc1cccc2c1C[C@H](O)[C@H](O)C2` (mixture of isomers) [Nadolol]: where the note is “AC50 (uM) modified / 1000”, the CC50 at 24 h was > 20 µM.

For `Cc1cc(O)c(C(=O)N[C@@H](C(=O)N[C@@H]2C(=O)N3C(C(=O)O)=C(CSc4nnnn4C)CS[C@H]23)c2ccc(O)cc2)cn1` [Cefpiramide acid], the CC50 at 24 h (AC50 (uM) modified / 1000) is > 50 µM. The same measure, in the same setting: to `CNC(=O)ON=C(C)C(C)S(C)(=O)=O` (stereo not drawn) [Butoxycarboxim] belongs > 900 µM. For the compound `C[C@H](CN1CCOCC1)C(C(=O)N1CCCC1)(c1ccccc1)c1ccccc1` [Dextromoramide tartrate], where the note is “AC50 (uM) modified / 1000, Tox21_110001=Tox21_112829, viability, 1 nM T3 present, 24 h”, the half-maximal cytotoxic concentration (CC50) at 24 h was > 100 µM. As for `Cc1cc(C)cc(C)c1` [1,3,5-Trimethylbenzene], the CC50 at 24 h (AC50 (uM) modified / 1000) was > 90 µM. Consider `COC(=O)c1ccc(OC)cc1` [Methyl 4-methoxybenzoate], for which the CC50 at 24 h (AC50 (uM) modified / 1000) is > 90 µM.

`O=C(Nc1ccc(Br)cc1)c1cc(Br)cc(Br)c1O` [Tribromsalan]: the CC50 at 24 h is, setting by setting: (AC50 (uM) modified / 1000, Tox21_110001=Tox21_111700, viability, 1 nM T3 present, 24 h) 14.2 µM; (AC50 (uM) modified / 1000, Tox21_110001=Tox21_202442, viability, 1 nM T3 present, 24 h) 5.41 µM; (AC50 (uM) modified / 1000, Tox21_110001=Tox21_303223, viability, 1 nM T3 present, 24 h) 6.43 µM. Consider `O=C(O)COc1ccccc1` [Phenoxyacetic acid], for which the CC50 at 24 h by setting is: (AC50 (uM) modified / 1000, Tox21_110001=Tox21_111092, viability, 1 nM T3 present, 24 h) > 50 µM; (AC50 (uM) modified / 1000, Tox21_110001=Tox21_201854, viability, 1 nM T3 present, 24 h) > 90 µM. With `CCOCN(C(=O)CCl)c1c(C)cccc1CC` [Acetochlor], for the setting “AC50 (uM) modified / 1000”, the CC50 at 24 h is > 90 µM. The same measure, in the same setting: to `C=CC[N@@+]12CC[C@@]34c5ccccc5N5/C=C6/[C@H]7C[C@H]8[C@@]9(CC[N@@+]8(CC=C)C/C7=C/CO)c7ccccc7N(/C=C(/[C@@H](C[C@@H]31)/C(=C\CO)C2)[C@H]54)[C@@H]69` [Alcuronium chloride] belongs > 20 µM; to `c1ccc(C2(c3ccccc3)CC2C2=NCCN2)cc1` (stereo not drawn) [Cifenline succinate], > 50 µM.

Consider `CC(O)C(=O)O` (stereo not drawn) [Calcium lactate], for which the CC50 at 24 h (AC50 (uM) modified / 1000) was > 90 µM. Still for that read-out and setting: to `CCC(=O)Oc1ccc2c(c1)CC[C@@H]1[C@@H]2CC[C@]2(C)[C@@H](OC(=O)CC)CC[C@@H]12` [Estradiol dipropionate] belongs > 50 µM. Same read-out and setting: the same measure for `CC(C)(C(=O)c1cccnc1)c1cccnc1` [Metyrapone]: > 20 µM; for `O=S(=O)(O)c1cc(O)c2c(/N=N/c3ccc(Nc4ccccc4)c4c(S(=O)(=O)O)cccc34)cc(S(=O)(=O)O)cc2c1` [Anazolene sodium]: 22.8 µM. For `CCCCN(CCCC)SN(C)C(=O)Oc1cccc2c1OC(C)(C)C2` [Carbosulfan], the CC50 at 24 h is, setting by setting: (AC50 (uM) modified / 1000, Tox21_110001=Tox21_202336, viability, 1 nM T3 present, 24 h) > 90 µM; (AC50 (uM) modified / 1000, Tox21_110001=Tox21_300473, viability, 1 nM T3 present, 24 h) 24.2 µM. Regarding `CCCCCCCCCCCCCCCC[N+](C)(C)C` [Hexadecyl trimethyl ammonium chloride], half-maximal cytotoxicity (AC50 (uM) modified / 1000) (CC50 at 24 h) was put at 12.8 µM. As to `C[C@]12CC[C@H]3[C@@H](CC=C4C[C@@H](O)CC[C@@]43C)[C@@H]1CC[C@@H]2O` [Androstenediol], the CC50 at 24 h (AC50 (uM) modified / 1000, Tox21_110001=Tox21_112495, viability, 1 nM T3 present, 24 h) is > 50 µM. Take `COCC(C)OCC(C)OC(C)=O` (stereo not drawn) [Dipropyleneglycol methyl ether acetate]: under “AC50 (uM) modified / 1000”, the CC50 at 24 h was > 90 µM.

For `CC(=O)Oc1cccc(C(=O)O)c1OC(C)=O` [Dipyrocetyl], the CC50 at 24 h (AC50 (uM) modified / 1000) was > 50 µM. On to `CC(C)(O)c1coc(S(=O)(=O)NC(=O)Nc2c3c(cc4c2CCC4)CCC3)c1` [CP-456773], for which the CC50 at 24 h (AC50 (uM) modified / 1000) was > 90 µM.

`C#CC(C)(C)NC(=O)c1cc(Cl)cc(Cl)c1` [Propyzamide]: the CC50 at 24 h (AC50 (uM) modified / 1000) is > 90 µM. Same read-out and setting: the same measure for `Clc1cc(Cl)c(Cl)nc1Cl` [2,3,5,6-Tetrachloropyridine]: > 90 µM; for `CC(O)COc1ccccc1` (stereo not drawn) [1-Phenoxy-2-propanol]: > 90 µM; for `CN(C)CCCN1c2ccccc2Sc2ccc(Cl)cc21` [Chlorpromazine hydrochloride]: 10.6 µM. In the case of `COC(=O)Cc1ccccc1` [Methyl phenylacetate], for the setting “AC50 (uM) modified / 1000, Tox21_110001=Tox21_300792, viability, 1 nM T3 present, 24 h”, the CC50 at 24 h was > 90 µM. Take `Cl/C=C\Cl` [(Z)-1,2-Dichloroethylene]: the CC50 at 24 h (AC50 (uM) modified / 1000, Tox21_110001=Tox21_200003, viability, 1 nM T3 present, 24 h) was > 90 µM. As to `OC(CCN1CCCCC1)(c1ccccc1)c1ccccc1` [Pridinol], the midpoint of cytotoxicity (AC50 (uM) modified / 1000), the CC50 at 24 h, lay at 25.8 µM. Still for that read-out and setting: to `CCN1CCC[C@H]1CNC(=O)c1c(OC)ccc(Br)c1OC` [Remoxipride] belongs > 50 µM; to `O=C(OOC(=O)c1ccccc1)c1ccccc1` [Benzoyl peroxide], > 50 µM. For the compound `CCCCCCCCN(C)C` [N,N-Dimethyloctylamine], the CC50 at 24 h (AC50 (uM) modified / 1000) is > 90 µM. On the same count and under the same terms, to `CC1=CC[C@@]23C[C@@H]1C(C)(C)[C@@H]2CC[C@H]3C` [(-)-alpha-Cedrene] belongs > 90 µM; to `COC(C)(C)CCO` [3-Methoxy-3-methylbutan-1-ol], > 90 µM; to `c1ccc(-c2cccc(-c3ccccc3)c2)cc1` [1,1':3',1''-Terphenyl], > 90 µM. Take `CC(C)=CCN1CC[C@]2(C)c3cc(O)ccc3C[C@H]1[C@H]2C` [(+)-Pentazocine succinate]: the CC50 at 24 h (AC50 (uM) modified / 1000, Tox21_110001=Tox21_112876, viability, 1 nM T3 present, 24 h) is > 90 µM. Turning to `S=C=Nc1cccc2ccccc12` [alpha-Naphylisothiocyanate], where the note is “AC50 (uM) modified / 1000”, the CC50 at 24 h was > 90 µM. Still for that read-out and setting: the same measure for `Cc1ccc(S(=O)(=O)NC(=O)N[C@@H](C)Cc2ccccc2)cc1` [Tosifen]: > 50 µM. On the same count and under the same terms, the same measure for `O=c1[nH]c(=O)n([C@H]2CCCO2)cc1F` [Tegafur]: > 90 µM. Consider `CN(C)c1ccc(N=Nc2ccccc2)cc1` [4-(Dimethylamino)azobenzene], for which the CC50 at 24 h (AC50 (uM) modified / 1000, Tox21_110001=Tox21_200757, viability, 1 nM T3 present, 24 h) is > 90 µM. As to `Cl/C=C/CCl` [1,3-Dichloropropene], the half-maximal cytotoxic concentration (CC50) at 24 h (AC50 (uM) modified / 1000, Tox21_110001=Tox21_200235, viability, 1 nM T3 present, 24 h) was > 90 µM.

Regarding `CC(C)OC(=O)c1ccccc1` [Propan-2-yl benzoate], where the note is “AC50 (uM) modified / 1000”, the CC50 at 24 h is > 100 µM. Same read-out and setting: to `OC(Cn1cncn1)(Cn1cncn1)c1ccc(F)cc1F` [Fluconazole] belongs > 90 µM; to `CC(=O)OC(C)C` [Isopropyl acetate], > 90 µM.

On to `O=C/C=C/c1ccccc1` [3-Phenylprop-2-enal], for which the CC50 at 24 h (AC50 (uM) modified / 1000) was > 90 µM. Same read-out and setting: the same measure for `C[C@H]1CC[C@]2(NC1)O[C@H]1C[C@H]3[C@@H]4CC[C@H]5C[C@@H](O[C@@H]6O[C@H](CO)[C@H](O[C@@H]7O[C@H](CO)[C@@H](O)[C@H](O[C@@H]8OC[C@@H](O)[C@H](O)[C@H]8O)[C@H]7O[C@@H]7O[C@H](CO)[C@@H](O)[C@H](O)[C@H]7O)[C@H](O)[C@H]6O)CC[C@]5(C)[C@H]4CC[C@]3(C)[C@H]1[C@@H]2C` [alpha-Tomatine]: 2.38 µM; for `Cc1cc(C)c(C2=C(OC(=O)CC(C)(C)C)C3(CCCC3)OC2=O)c(C)c1` [Spiromesifen]: > 100 µM; for `CCCCNC(=O)NCCCC` [N,N'-Dibutylurea]: > 90 µM. As to `CCN(C)C(=O)Oc1cccc([C@H](C)N(C)C)c1` [Rivastigmine tartrate], the CC50 at 24 h (AC50 (uM) modified / 1000) was > 50 µM. On the same count and under the same terms, to `CC[C@H]1OC(=O)[C@H](C)[C@@H](O[C@H]2C[C@@](C)(OC)[C@@H](O)[C@H](C)O2)[C@H](C)[C@@H](O[C@@H]2O[C@H](C)C[C@H](N(C)C)[C@H]2O)[C@](C)(O)C[C@@H](C)[C@@H]2N[C@@H](COCCOC)O[C@H]([C@H]2C)[C@]1(C)O` [Dirithromycin] belongs > 50 µM.

Consider `CC[N+](=O)[O-]` [Nitroethane], for which the CC50 at 24 h (AC50 (uM) modified / 1000, Tox21_110001=Tox21_202217, viability, 1 nM T3 present, 24 h) was > 90 µM. Consider `CN(C)C(=O)Oc1ccc[n+](C)c1` [Pyridostigmine bromide], for which the CC50 at 24 h (AC50 (uM) modified / 1000) was > 50 µM.

As for `Cc1cccc(C(=O)O)c1O` [2-Hydroxy-3-methylbenzoic acid], the cytotoxic concentration (CC50) at 24 h (AC50 (uM) modified / 1000) was > 50 µM. On the same count and under the same terms, the same measure for `C=CC(=O)OCCCCOC(=O)C=C` [1,4-Butanediol diacrylate]: 17.5 µM; for `COc1cc(CC(C)N)c(OC)cc1Br` (stereo not drawn) [4-Bromo-2,5-dimethoxyamphetamine hydrochloride]: 40.8 µM. Same read-out and setting: the same measure for `Cc1ccc(-c2ccccc2)cc1` [4-Phenyltoluene]: > 90 µM; for `N[C@H](CO)C(=O)O` [D-Serine]: > 50 µM; for `COc1ncnc(NS(=O)(=O)c2ccc(N)cc2)c1OC` [Sulfadoxine]: > 50 µM.

In turn, `C=C[C@H]1C[N@@]2CC[C@H]1C[C@@H]2[C@@H](O)c1ccnc2ccc(OC)cc12` [Quinidine] returned a CC50 at 24 h (AC50 (uM) modified / 1000) of 85.2 µM.

As for `CC(=O)Nc1ccccc1` [Acetanilide], the CC50 at 24 h (AC50 (uM) modified / 1000) is > 90 µM. Regarding `CNC=Nc1ccc(C)cc1C` [N'-(2,4-Dimethylphenyl)-N-methylformamidine], the CC50 at 24 h (AC50 (uM) modified / 1000, Tox21_110001=Tox21_301746, viability, 1 nM T3 present, 24 h) was > 90 µM. Turning to `CC1(C)NC(=O)NC1=O` [5,5-Dimethylhydantoin], the cytotoxic concentration (CC50) at 24 h (AC50 (uM) modified / 1000) is > 90 µM.

`C[C@@]12C(=O)OC(=O)[C@]1(C)[C@H]1CC[C@@H]2O1` [Cantharidin] returned a CC50 at 24 h (AC50 (uM) modified / 1000) of 2.01 µM.

The values above are taken from publication PMC6792352, “Limited Chemical Structural Diversity Found to Modulate Thyroid Hormone Receptor in the Tox21 Chemical Library” (Environmental Health Perspectives, 2019).
